# From patent publication US10376520B2, “Methods for the treatment of cardiovascular disorders” (Galapagos NV, priority 2015, dated 2019)
# System: RA patients
# Assay: Total cholesterol determination, Study 2 (RA patients, monotherapy with Compound 1)
# Type: in vivo, human
# From the text: Randomized, double-blind, placebo-controlled, multicenter, phase IIb dose finding study of Compound 1 (dosed as a [Compound 1:HCl:3H2O]) administered for 24 weeks as monotherapy to subjects with moderately to severely active rheumatoid arthritis who have an inadequate response to methotrexate alone
# Double-blind, placebo-controlled, monotherapy study in subjects with moderately to severely active RA who have an inadequate response to methotrexate (MTX) (oral or parenteral).
# 280 subjects randomized to one of 3 doses of Compound 1 (dosed as a [Compound 1:HCl:3H2O]) or to placebo, given once daily (q.d.).
# Twelve weeks of treatment with Compound 1 (dosed as a [Compound 1:HCl:3H2O]) at 50 mg, 100 mg, or 200 mg q.d.; or placebo. At Week 12, all subjects on placebo and the subjects on the 50 mg dose who have not achieved 20% improvement in swollen joint count (SJC66) and tender joint count (TJC68) will be assigned to 100 mg q.d. in a blinded fashion and will continue treatment until Week 24. Subjects in the other groups will maintain their randomized treatment until Week 24.
# This method is based on the determination of Δ^4 cholestenone after enzymatic cleavage of the cholesterol ester by cholesterol esterase, conversion of cholesterol by cholesterol oxidase, and subsequent measurement by the Trinder reaction of the hydrogen peroxide formed (Allain et al., 1974).
# Cholesterol esters are cleaved by the action of cholesterol esterase to yield free cholesterol and fatty acids. Cholesterol oxidase then catalyzes the oxidation of cholesterol to cholest-4-en-3-one and hydrogen peroxide. In the presence of peroxidase, the hydrogen peroxide formed effects the oxidative coupling of phenol and 4-aminophenazone to form a red quinone-imine dye. The color intensity of the dye formed is directly proportional to the cholesterol concentration. It is determined by measuring the increase in absorbance.
# Human serum and plasma samples cholesterol determination was done on a Roche/Hitachi Cobas c 701/702 system which automatically calculate the analyte concentration of each sample.
# [1] = 50 mg q.d. non responders switching to 100 mg q.d. at week 12, week 1
# [2] = 50 mg q.d. non responders switching to 100 mg q.d. at week 12, week 2
# [3] = 50 mg q.d. non responders switching to 100 mg q.d. at week 12, week 4
# [4] = 50 mg q.d. non responders switching to 100 mg q.d. at week 12, week 8
# [5] = 50 mg q.d. non responders switching to 100 mg q.d. at week 12, week 12
# [6] = 50 mg q.d. non responders switching to 100 mg q.d. at week 12, week 16
# [7] = 50 mg q.d. non responders switching to 100 mg q.d. at week 12, week 20
# [8] = 50 mg q.d. non responders switching to 100 mg q.d. at week 12, week 24
compound,measurement,setting,value
"O=C(Nc1nc2cccc(-c3ccc(CN4CCS(=O)(=O)CC4)cc3)n2n1)C1CC1 [Compound 1, cyclopropanecarboxylic acid {5-[4-(1,1-dioxo-thiomorpholin-4-ylmethyl)-phenyl]-[1,2,4]triazolo[1,5-a]pyridin-2yl}-amide]",[total cholesterol] Mean percentage CFB - 24 weeks results,[1],4.56%
same,[total cholesterol] Median percentage CFB - 24 weeks results,[1],2.94%
same,[total cholesterol] Mean percentage CFB - 24 weeks results,[2],3.50%
same,[total cholesterol] Median percentage CFB - 24 weeks results,[2],2.00%
same,[total cholesterol] Mean percentage CFB - 24 weeks results,[3],7.51%
same,[total cholesterol] Median percentage CFB - 24 weeks results,[3],6.58%
same,[total cholesterol] Mean percentage CFB - 24 weeks results,[4],5.10%
same,[total cholesterol] Median percentage CFB - 24 weeks results,[4],2.88%
same,[total cholesterol] Mean percentage CFB - 24 weeks results,[5],5.83%
same,[total cholesterol] Median percentage CFB - 24 weeks results,[5],6.79%
same,[total cholesterol] Mean percentage CFB - 24 weeks results,[6],9.72%
same,[total cholesterol] Median percentage CFB - 24 weeks results,[6],11.41%
same,[total cholesterol] Mean percentage CFB - 24 weeks results,[7],9.75%
same,[total cholesterol] Median percentage CFB - 24 weeks results,[7],7.07%
same,[total cholesterol] Mean percentage CFB - 24 weeks results,[8],10.66%
same,[total cholesterol] Median percentage CFB - 24 weeks results,[8],10.65%
same,[total cholesterol] Mean percentage CFB - 24 weeks results,"50 mg q.d. responders, week 1",0.02%
same,[total cholesterol] Median percentage CFB - 24 weeks results,"50 mg q.d. responders, week 1",0.35%
same,[total cholesterol] Median percentage CFB - 24 weeks results,"50 mg q.d. responders, week 2",−0.82%
same,[total cholesterol] Mean percentage CFB - 24 weeks results,"50 mg q.d. responders, week 4",1.68%
same,[total cholesterol] Median percentage CFB - 24 weeks results,"50 mg q.d. responders, week 4",−0.51%
same,[total cholesterol] Mean percentage CFB - 24 weeks results,"50 mg q.d. responders, week 8",5.55%
same,[total cholesterol] Median percentage CFB - 24 weeks results,"50 mg q.d. responders, week 8",5.74%
same,[total cholesterol] Mean percentage CFB - 24 weeks results,"50 mg q.d. responders, week 12",3.59%
same,[total cholesterol] Median percentage CFB - 24 weeks results,"50 mg q.d. responders, week 12",1.01%
same,[total cholesterol] Mean percentage CFB - 24 weeks results,"50 mg q.d. responders, week 16",5.85%
same,[total cholesterol] Median percentage CFB - 24 weeks results,"50 mg q.d. responders, week 16",2.92%
same,[total cholesterol] Mean percentage CFB - 24 weeks results,"50 mg q.d. responders, week 20",2.09%
same,[total cholesterol] Median percentage CFB - 24 weeks results,"50 mg q.d. responders, week 20",3.75%
same,[total cholesterol] Mean percentage CFB - 24 weeks results,"50 mg q.d. responders, week 24",3.49%
same,[total cholesterol] Median percentage CFB - 24 weeks results,"50 mg q.d. responders, week 24",5.44%
same,[total cholesterol] Mean percentage CFB - 12 weeks results,"50 mg q.d., week 1",0.96%
same,[total cholesterol] Median percentage CFB - 12 weeks results,"50 mg q.d., week 1",2.12%
same,[total cholesterol] Mean percentage CFB - 12 weeks results,"50 mg q.d., week 2",−0.18%
same,[total cholesterol] Median percentage CFB - 12 weeks results,"50 mg q.d., week 2",0.00%
same,[total cholesterol] Mean percentage CFB - 12 weeks results,"50 mg q.d., week 4",2.91%
same,[total cholesterol] Median percentage CFB - 12 weeks results,"50 mg q.d., week 4",0.00%
same,[total cholesterol] Mean percentage CFB - 12 weeks results,"50 mg q.d., week 8",5.45%
same,[total cholesterol] Median percentage CFB - 12 weeks results,"50 mg q.d., week 8",4.90%
same,[total cholesterol] Mean percentage CFB - 12 weeks results,"50 mg q.d., week 12",4.08%
same,[total cholesterol] Median percentage CFB - 12 weeks results,"50 mg q.d., week 12",3.43%
same,[total cholesterol] Mean percentage CFB - 12 weeks results,"100 mg q.d., week 1",4.15%
same,[total cholesterol] Mean percentage CFB - 24 weeks results,"100 mg q.d., week 1",4.15%
same,[total cholesterol] Median percentage CFB - 24 weeks results,"100 mg q.d., week 1",2.38%
same,[total cholesterol] Mean percentage CFB - 12 weeks results,"100 mg q.d., week 2",4.96%
same,[total cholesterol] Mean percentage CFB - 24 weeks results,"100 mg q.d., week 2",4.96%
same,[total cholesterol] Median percentage CFB - 24 weeks results,"100 mg q.d., week 2",2.65%
same,[total cholesterol] Mean percentage CFB - 12 weeks results,"100 mg q.d., week 4",8.28%
same,[total cholesterol] Mean percentage CFB - 24 weeks results,"100 mg q.d., week 4",8.28%
same,[total cholesterol] Median percentage CFB - 24 weeks results,"100 mg q.d., week 4",5.40%
same,[total cholesterol] Mean percentage CFB - 12 weeks results,"100 mg q.d., week 8",7.75%
same,[total cholesterol] Mean percentage CFB - 24 weeks results,"100 mg q.d., week 8",7.75%
same,[total cholesterol] Median percentage CFB - 24 weeks results,"100 mg q.d., week 8",6.08%
same,[total cholesterol] Mean percentage CFB - 12 weeks results,"100 mg q.d., week 12",12.45%
same,[total cholesterol] Mean percentage CFB - 24 weeks results,"100 mg q.d., week 12",12.45%
same,[total cholesterol] Median percentage CFB - 24 weeks results,"100 mg q.d., week 12",6.41%
same,[total cholesterol] Mean percentage CFB - 24 weeks results,"100 mg q.d., week 16",10.96%
same,[total cholesterol] Median percentage CFB - 24 weeks results,"100 mg q.d., week 16",8.91%
same,[total cholesterol] Mean percentage CFB - 24 weeks results,"100 mg q.d., week 20",10.06%
same,[total cholesterol] Median percentage CFB - 24 weeks results,"100 mg q.d., week 20",9.85%
same,[total cholesterol] Mean percentage CFB - 24 weeks results,"100 mg q.d., week 24",11.75%
same,[total cholesterol] Median percentage CFB - 24 weeks results,"100 mg q.d., week 24",10.29%
same,[total cholesterol] Mean percentage CFB - 12 weeks results,"200 mg q.d., week 1",5.77%
same,[total cholesterol] Mean percentage CFB - 24 weeks results,"200 mg q.d., week 1",5.77%
same,[total cholesterol] Median percentage CFB - 24 weeks results,"200 mg q.d., week 1",5.37%
same,[total cholesterol] Mean percentage CFB - 12 weeks results,"200 mg q.d., week 2",7.74%
same,[total cholesterol] Mean percentage CFB - 24 weeks results,"200 mg q.d., week 2",7.74%
same,[total cholesterol] Median percentage CFB - 24 weeks results,"200 mg q.d., week 2",6.90%
same,[total cholesterol] Mean percentage CFB - 12 weeks results,"200 mg q.d., week 4",9.35%
